Row | SMILES | melting point [°C]
1 | CC(C)(C)OC(=O)CCC1CCC(N)CC1 (stereo unspecified) | 39 to 40
2 | CN1C(=O)CSC1c1cccnc1 (stereo unspecified) | 96.5 to 97.5
3 | CC1(C)CC(Nc2nc(NC3CC(C)(C)NC(C)(C)C3)nc(N(CO)C3CC(C)(C)NC(C)(C)C3)n2)CC(C)(C)N1 | 201 to 202
4 | CCCCCCCCCCCCCCOC(=O)c1ccc(OC)c(N)c1 | 54 to 56
5 | N#Cc1c(NC(=O)CO)cccc1N1CCOCC1 | 123 to 126
6 | c1cn(CCCOc2ccc(-c3noc(C4CC4)n3)cc2)cn1 | 98 to 100
7 | O=S(=O)(CCc1ccc(-c2ccccc2)cc1)N1CC(CN2CCCC2)Cc2ccccc21 (stereo unspecified) | 107 to 110
8 | COc1ccc(-c2ccccc2)cc1F | 84.5 to 86
9 | CCCCCCCCSc1ccc(C#N)c(C#N)c1 | 37 to 38
10 | CN(C)C=C(C#N)C(=O)Nc1ccccc1 | 162 to 164
11 | CCS(=O)(=O)c1ccc(C(CC2CCCC2)C(=O)O)cc1 (stereo unspecified) | 137 to 138
12 | CCN(CC)CCC(=O)O | 65 to 67
13 | N#CCN1CCN(c2cccc(Cl)c2Cl)CC1 | 89 to 92
14 | C=CCCc1sc(C#N)c2c1C(=O)CC(C)(C)C2 | 43 to 46
15 | O=C(CN1CCC(c2noc3cc(F)ccc23)CC1)N1Cc2ccccc2C1 | 184 to 185
16 | CC(C)(C)c1ccc(C(=O)NC(=N)N)cc1 | 255 to 258
17 | O=c1oc(-c2ccccc2)ns1 | 64 to 67
18 | COc1c([N+](=O)[O-])ccc(C=O)c1OS(=O)(=O)c1ccccc1 | 74 to 76
19 | C=CCN1C2C=C(c3cc4ccccc4s3)CC1CC2 (stereo unspecified) | 60.6 to 62.6
20 | CCOCOC1CCC2(C)C(=CCC3C2CCC2(C)C3CC3OC4(CCC(C)CO4)C(C)C32)C1 (stereo unspecified) | 125 to 127
21 | COc1ccc(Nc2cccc(Cl)c2[N+](=O)[O-])cc1 | 73 to 74
22 | CCCCCCCCCCCCCCCCOCC(O)CN1CCC(C#N)(c2ccccc2)CC1 (stereo unspecified) | 69 to 70
23 | N#CCN1CCC(c2n[nH]c3cc(F)ccc23)CC1 | 149 to 151
24 | CC1(S(=O)(=O)C2(C)C=CC=CC2O)C=CC=CC1O (stereo unspecified) | 95 to 97
25 | O=S(=O)(N[C@H]1CC[C@H](CCN2CCN(c3nccc4c3OCC4)CC2)CC1)c1ccc(F)cc1 | 148
26 | O=c1nc(Nc2ccc(C(F)(F)F)cc2)sc2ncccc12 | 280 to 283
27 | CCCc1nc2c(N)nc3ccccc3c2n1CCCC(=O)N1CCOCC1 | 200 to 202
28 | CCCCCCCCCCCCSCCOc1ccc(CCC(=O)O)cc1 | 68 to 69
29 | O=C(O)c1ccc(OC2=C3N=C4CCCCC4=C3C(Cc3ccc(Cl)cc3)C=C2)o1 (stereo unspecified) | 162 to 164

Continued, values first:

Row | melting point [°C] | SMILES
30 | 129 to 131 | Cc1ccccc1-c1ccc(C(=O)N2Cc3ccc(C(=O)NCCc4ccc(O)cc4)n3Cc3ccccc32)cc1C
31 | 80 to 81 | COc1ccc(OCC(=O)N[C@@H](Cc2ccccc2)C(=O)CSCc2ccsc2)cc1
32 | 160 to 162 | COc1cc(C(O)C(Cl)(Cl)Cl)cc(OC)c1O (stereo unspecified)
33 | 100 to 101 | Cc1cc(C)cc(S(=O)c2c(C(C)C)nc(C)n2C)c1 (stereo unspecified)
34 | 106 | CCOC(=O)NS(=O)(=O)c1cc(C(C)=O)ccc1Cl
35 | 126 to 128 | CCOC(=O)C(O)C1OC(c2ccccc2Cl)c2cc(Cl)ccc2N(C(C)C)C1=O (stereo unspecified)
36 | 132 to 134 | COC(=O)C(C)n1nnc2ccc(O)cc21 (stereo unspecified)
37 | 82.3 | Cc1c(C(F)(F)F)cnn(-c2cc(OCC3CC3)c(Cl)cc2F)c1=O
38 | 137 to 138 | CCC#COc1ccc(S(=O)(=O)NC(CSCc2ccccc2)C(=O)NO)cc1 (stereo unspecified)
39 | 300 | O=C(O)c1cc(C(=O)O)c2c(c1)C(C(=O)O)CC(c1ccccc1)N2 (stereo unspecified)
40 | > 320 | O=C(CCN1CCCC1)Nc1ccc2c(=O)c3ccc(NC(=O)CCN4CCCC4)cc3[nH]c2c1
41 | 101 to 103 | COc1ccc(-c2[nH]cnc2-c2cc(OC)c(N)c(OC)c2)cc1F
42 | 149 to 151 | Clc1cc(C#Cc2nccs2)c2oc(Cc3ccccc3Cl)nc2c1
43 | 175 to 177 | CNC(=O)c1cc(Oc2ccc3c(C(=O)Nc4cccc(C(F)(F)F)c4)cccc3c2)ccn1
44 | 100 to 102 | COc1ccccc1COc1ccc(S(=O)(=O)c2ccc(C)nc2Nc2ccc(S(C)(=O)=O)cc2Cl)cc1
45 | 160 to 180 | COc1cc2nc(CSc3ncnc4[nH]cnc34)n(-c3ccccc3Cl)c(=O)c2cc1OC
46 | 187 to 188 | N#Cc1c(N)n[nH]c1-c1ccc(Oc2ccccc2)cc1
47 | 208 to 210 | Fc1ccc2[nH]c3c4ccccc4nc-3c(Cl)c2c1
48 | 117 to 120 | O=C(C=C1CCN(CCc2ccc(F)cc2)CC1)NCc1ccc(F)c(F)c1
49 | 248 to 250 | NC1=C(N=O)C(=O)N2CCN=C2N1Cc1ccc(F)cc1
50 | 103 to 105 | CCOC(=O)C1COc2cc(-c3ccccc3)ccc2O1 (stereo unspecified)

Row | melting point [°C] | SMILES
51 | 153 to 156 | CN(C)Cc1[nH]c2ccccc2c1Cn1ccnc1
52 | 88 to 90 | CCOc1ccc([N+](=O)[O-])cc1OC
53 | 94 to 95 | CCC(CC)c1nn(-c2ccc(Br)cn2)cc1CCCOc1c(CC(=O)O)cccc1OC
54 | 186 to 188 | CC(=O)OCC1OC(n2cc(Cc3ccc4occc4c3)c3c(Cl)cccc32)C(OC(C)=O)C(OC(C)=O)C1OC(C)=O (stereo unspecified)
55 | 310 to 315 | OCc1cnc2ccc(F)cc2c1O
56 | 194 to 195 | CC(C)NC(=S)Nc1ccc(Cl)c(-c2ccnc3c(C(=O)c4cccs4)cnn23)c1
57 | 153 to 154 | CCCCOC(=O)Nc1ccc2cnn(Cc3ccc(C(=O)NS(=O)(=O)c4ccccc4)cc3OC)c2c1
58 | 110 | CC(=CCc1c(C)c(N=Nc2ccc([N+](=O)[O-])cc2[N+](=O)[O-])c2ccccc2c1O)CCCC(C)CCCC(C)CCCC(C)C (stereo unspecified)
59 | 78.3 to 80.8 | CN(C)CCOc1cc(CCCOc2nn(Cc3ccccc3)cc2CC(=O)O)n(Cc2ccc(Cl)cc2Cl)n1
60 | 160 to 162 | Cn1c(COc2ccc(CC3SC(=O)NC3=O)cc2)nc2ccc(Oc3ccc(NC(=O)c4cc(C(C)(C)C)c(O)c(C(C)(C)C)c4)cc3)cc21 (stereo unspecified)
61 | 140 to 141 | CCCCCS(=O)(=O)NC(=O)/C=C/c1ccc(OCCOC)cc1NC(=O)c1ccc(F)cc1F
62 | 170 to 171 | CNC(=NCCSCc1[nH]cnc1C)P(=O)(O)OC
63 | 214 to 215 | Nc1ccc(N2C(=O)CCCC2=O)cc1
64 | 173 to 175 | CCCn1c(-c2ccc(-n3ccnc3)cc2)cnc1[C@H](Cc1ccccn1)N(C=O)c1cc2cc(Cl)ccc2o1
65 | 158 to 160 | CC#CCn1c(Oc2cc(C)cc(C)c2)c(C(C)C)c(=O)[nH]c1=O
66 | 107 to 109 | COC(=O)c1cc(Cl)c2c(c1OC)CCN2C(C)=O
67 | 235 to 237 | O=C1CCCc2[nH]c3ccc(OCc4ccccc4)cc3c21
68 | 137 to 140 | CS(=O)(=O)Nc1cccc(Nc2nc(OC3CCCC3)c3nc[nH]c3n2)c1
69 | 90 to 93 | C=C(c1ccc(N(C)C)cc1)c1ccc(N2CCCC2)cc1C
70 | 161 to 163 | COC(=O)c1ccccc1-c1ccc(N(C)C)cn1
71 | 64 to 72 | COC(=O)C1(c2ccc(OCCNC(=O)C3Cc4ccccc4N3S(=O)(=O)c3ccc(-c4cc(C(F)(F)F)ccc4Cl)cc3)cc2)CC1 (stereo unspecified)
